In publication PMC10892984, “Novel Antineoplastic Inducers of Mitochondrial Apoptosis in Human Cancer Cells” (Molecules, 2024):

Tested on: HL-60 (TB)
Settings: for CC50: read-out: LC50; for TGI: HL-60 (TB), leukemia, mutant p53, 48 h

SMILES	CC50 (Homo sapiens, HL-60, 48 h) [nM]	TGI [nM]	GI50 (Homo sapiens, HL-60, 48 h) [nM]
c1cc(CNC23CC4CC(CC(C4)C2)C3)cc(C[N+](Cc2cccc(CNC34CC5CC(CC(C5)C3)C4)c2)(Cc2cccc(CNC34CC5CC(CC(C5)C3)C4)c2)Cc2cccc(CNC34CC5CC(CC(C5)C3)C4)c2)c1 (centres unmarked) [Compound 1, tetrakis{3-[(tricyclo[3.3.1.1^3,7]decan-1-ammonio)methyl]benzyl}ammonium pentachloride]	> 50000	–	–
COc1cc2c(c(OC)c1OC)-c1ccc(NNC(N)=S)c(=O)cc1C(NC(C)=O)CC2 [Compound 2, N-[(aS,7S)-10-(2-carbamothioylhydrazinyl)-1,2,3-trimethoxy-9-oxo-5,6,7,9-tetrahydrobenzo[a]heptalen-7-yl]acetamide monohydrate × ⅔ (ethyl acetate)]	> 100000	1260	113
COc1cc2c(c(OC)c1OC)-c1ccc(NNC(=S)N(Cc3cccc(C[N+](Cc4cccc(CNC56CC7CC(CC(C7)C5)C6)c4)(Cc4cccc(CNC56CC7CC(CC(C7)C5)C6)c4)Cc4cccc(CN(C(=S)NNc5ccc6c(cc5=O)C(NC(C)=O)CCc5cc(OC)c(OC)c(OC)c5-6)C56CC7CC(CC(C7)C5)C6)c4)c3)C34CC5CC(CC(C5)C3)C4)c(=O)cc1C(NC(C)=O)CC2 [Compound 3, [(bis{3-[(tricyclo[3.3.1.1^3,7]decan-1-ylamino)methyl]benzyl}ammonio)bis(methanediylbenzene-3,1-diylmethanediyl)]di-2-[(aS,7S)-7-(acetylamino)-1,2,3-trimethoxy-9-oxo-5,6,7,9-tetrahydrobenzo[a]heptalen-10-yl]-N-(tricyclo[3.3.1.1^3,7]decan-1-yl)hydrazinecarbothioamide chloride pentahydrate]	–	1030	–
